Test results taken from article PMC6274259, “New 3-Cyano-2-Substituted Pyridines Induce Apoptosis in MCF 7 Breast Cancer Cells” (Molecules, 2016).

Experiments:
[1] = tested on: SK-OV-3 human ovarian carcinoma cell line; experiment: WST-1 cell viability assay, SK-OV-3; assay type: cell-based; details: Homo sapiens, SK-OV-3; WST-1, 24 h treatment, mean ± S.D of three independent experiments
Source text: (§1) The synthesized compounds were screened for their cytotoxicity on five cancer cell lines, namely SK-OV-3, MCF-7, MDA-MB-231, HCT-116 and RKO, using a WST colorimetric assay. The assay principle is based upon the reduction of the tetrazolium salt WST-1 to formazan by cellular mitochondrial dehydrogenases present in viable cells. […] Among the latter compounds the benzohydrazide derivative 9a emerged with the lowest IC50 in this study against MCF-7 cells compared to 5-FU. […] Based on the fact that 9a had less cytotoxic effects on normal breast epithelial cells it was subjected to further studies.
(§2) The following cell lines were used for the screening stage, obtained from the American Type Culture Collection (ATCC, Manassas, VA, USA); SK-OV-3 (HTB-77), MCF-12A (ATCC CRL-10782), MDA-MB-231 (ATCC HTB-26), HCT-116 (CCL-247), RKO (CRL-2577) and sub-culturing of the above cell lines was conducted in 75 cm^2 flasks. The old culture media was removed and discarded after assessing the confluency of the cells and the cells were rinsed with 2–3 mL diluted trypsin (1×) (trypsin/EDTA solution consists of 0.025% trypsin and 0.01% EDTA in PBS), for about 5 minutes for complete detachment. The cells were observed under the inverted microscope until the cell layer is completely dispersed. 75 cm^2 flasks were prepared and 16 mL of DMEM media for SK-OV-3, MCF-7, MDA-MB-231, (DMEM 4500 mg glucose) and RPMI media for HCT-116 were added to each flask. The cells were aspirated gently and added to the flasks. DMEM 4500 mg/L high glucose with 10% FBS, 5% streptomycin and penicillin, RPMI 1640 (prepared by adding 5% heat-inactivated FCS and 2 mm glutamine) were used. DMEM was also used for MCF-12A cells with the addition of human epidermal growth factor 20 ng/mL, insulin 0.01 mg/mL and hydrocortisone 500 ng/mL.
(§3) The synthesized compounds were screened for their anti-proliferative activity using 5-FU (F6627-1G, Sigma-Aldrich, St. Louis, MO, USA) as reference compound. A concentration of 0.4% DMSO was used in all experiment after ensuring 100% viability of the cell lines with this concentration. A 25 mM stock concentration of all compounds was prepared for further studies and analysis.
(§4) Cells were trypsinized and placed in a 15 mL Falcon tube, the cells were centrifuged for 3 min at 1000 rpm. Trypsin is decanted using a sterile pipette and then the pellet is loosened by flicking the tube few times then 5–10 mL warm DMEM or RPMI were added to the Falcon tube and the pellet is resuspended. Cell count was done next by taking 10 μL of the suspension into the cell counting slide and read under 10× cells/mL. A cell stock of 50,000 cells/mL was prepared for the 96 wells. Cells (100 μL) were added to each well using a sterile pipette each time to ensure consistency. The experiment was planned ahead of time using excel sheet, 3–6 wells were reserved as blank media while 3–6 wells for vehicle (DMSO). The plate was incubated for 24 h for compound treatment step. DMEM media was used to prepare different dilutions of the compounds. The old DMEM media was removed from the wells using sterile pipette in the hood and the media was replaced with 100 μL media with each compound. The plate was incubated for 24 h. After 24 h incubation, WST-1 reagent (Sigma) was added to each well and then the plate was incubated for 1 h before measuring the absorbance using VICTOR™ Multilabel Plate Reader (Perkin Elmer, Beaconsfield, UK). The absorbance of the colored solution can be quantified by measuring at a certain wavelength (usually between 500–600 nm), in this experiment the first reading was conducted at 540 nm and the second reading at 690 nm for the reference wavelength. The percentage of cell viability was determined as the ratio of the absorbance of the sample vs the control. Three independent experiments were performed. […] 5-Florouracil (Sigma-Aldrich, F6627-1G) was used as reference standard.

[2] = tested on: HCT-116 human colon carcinoma cell line; experiment: WST-1 cell viability assay, HCT-116; assay type: cell-based; details: Homo sapiens, HCT-116; WST-1, 24 h treatment, mean ± S.D of three independent experiments
Source text: as §1, §2, §3, §4

[3] = tested on: MCF-7 human breast adenocarcinoma cell line; experiment: WST-1 cell viability assay, MCF-7; assay type: cell-based; details: Homo sapiens, MCF7, 24 h, WST-1, 24 h treatment, mean ± S.D of three independent experiments
Source text: as §1, §2, §3, §4

[4] = tested on: MDA-MB-231 human breast adenocarcinoma cell line; experiment: WST-1 cell viability assay, MDA-MB-231; assay type: cell-based; details: Homo sapiens, MDA-MB-231; WST-1, 24 h treatment, mean ± S.D of three independent experiments
Source text: as §1, §2, §3, §4

[5] = tested on: RKO human colon carcinoma cell line; experiment: WST-1 cell viability assay, RKO; assay type: cell-based; details: Homo sapiens, Colon carcinoma cell; WST-1, 24 h treatment, mean ± S.D of three independent experiments
Source text: as §1, §2, §3, §4

Row | SMILES | IC50 [1] [µM] | IC50 [2] [µM] | melting point [°C] | IC50 [3] [µM] | IC50 [4] [µM] | IC50 [5] [µM]
1 | COc1ccc(-c2cc(-c3ccc(OC)c(OC)c3)c(C#N)c(OCC(=O)n3nc(C)cc3C)n2)cc1OC [Compound 11, 4,6-Bis(3,4-dimethoxyphenyl)-2-(2-(3,5-dimethyl-1H-pyrazol-1-yl)-2-oxoethoxy)pyridine-3-carbonitrile] | 26.2 ± 0.95 | 33.9 ± 0.87 | 161 to 163 | > 50 | > 50 | > 50
2 | COc1ccc(-c2cc(-c3ccc(OC)c(OC)c3)c(C#N)c(OCC(=O)N3N=C(C)CC3=O)n2)cc1OC [Compound 12, 4,6-bis(3,4-Dimethoxyphenyl)-2-(2-(3-methyl-5-oxo-4,5-dihydro-1H-pyrazol-1-yl)-2-oxoethoxy)pyridine-3-carbonitrile] | 20.3 ± 1.72 | 40.4 ± 1.76 | 189 to 190 | > 50 | > 50 | > 50
3 | COC(=O)c1c(SC)nn(C(=O)COc2nc(-c3ccc(OC)c(OC)c3)cc(-c3ccc(OC)c(OC)c3)c2C#N)c1N [Compound 13a, Methyl 5-amino-1-{[(3-cyano-4,6-bis(3,4-dimethoxyphenyl)pyridin-2-yl)oxy]acetyl}-3-(methylsulfanyl)-1H-pyrazole-4-carboxylate] | > 50 | 36.3 ± 1.71 | 184 to 186 | > 50 | > 50 | > 50
4 | COc1ccc(-c2cc(-c3ccc(OC)c(OC)c3)c(C#N)c(OCC(=O)n3nc(SC)c(C#N)c3N)n2)cc1OC [Compound 13b, 2-{2-[5-Amino-4-cyano-3-(methylsulfanyl)-1H-pyrazol-1-yl]-2-oxoethoxy}-4,6-bis(3,4-dimethoxyphenyl)-pyridine-3-carbonitrile] | > 50 | 30.1 ± 0.76 | 202 to 204 | > 50 | > 50 | > 50
